Reference: patent US20100267827A1, “PHENYL-PRENYL-ETHER DERIVATIVES FOR THE TREATMENT OF COGNITIVE, NEURODEGENERATIVE OR NEURONAL DISEASES OR DISORDERS” (NOSCIRA, S.A., priority 2006, published 2010)

Key:
[1] = molecular target: recombinant human glycogen synthase kinase 3 beta (Homo sapiens, UniProt P49841); experiment: GSK-3 beta inhibition assay; format: biochemical; conditions: 0.5 h, percentage of enzyme activity remaining; for remaining activity at 50 µM: 50 μM compound; for remaining activity at 25 µM: 25 μM compound
Procedure: The GSK-3 beta activity of the compounds of formula (I) according to the present invention was determined by incubation of a mixture of recombinant human GSK-3 enzyme, a phosphate source and GSK-3 substrate in the presence and in the absence of the corresponding test compound, and by measuring the GSK-3 activity of this mixture. The compounds where tested at final concentrations of 25 and 50 μM.
Recombinant human glycogen synthase kinase 3 beta was assayed in MOPS 11 mM, pH 7.4, EDTA 0.2 mM, EGTA 1.25 mM, MgCl2 26.25 mM and sodium orthovanadate 0.25 mM in the presence of 62.5 μM of Phospho-Glycogen Synthase Peptide-2 (GS-2), 0.5 μCi gamma-^33P-ATP and unlabelled ATP at a final concentration of 12.5 μM. The final assay volume was 20 μl. After incubation for 30 minutes at 30° C., 15 μl aliquots were spotted onto P81 phosphocellulose papers. Filters were washed four times for at least 10 minutes each and counted with 1.5 ml of scintillation cocktail in a scintillation counter.
(§1) The compounds of formula (I) of the present invention where submitted to the above indicated assays, in order to determine both their GSK-3 inhibition activity and BACE activity inhibition. The results are indicated in Table I, in percentage of the respective enzyme activity.

[2] = molecular target: T1, rhBACE-1 β-Secretase recombinant human (Homo sapiens, UniProt P56817); experiment: BACE assay (FRET); format: biochemical; conditions: percentage of enzyme activity remaining
T1 construct: purchased R&D Systems 931-AS
Text: The aim of this assay is to determine if a compound, either synthetic or of marine origin, is a BACE-1 inhibitor, to avoid the formation of Aβ. This assay is based on FRET technology (Fluorescence Resonance Energy Transfer). FRET is used to measure cleavage of a peptide substrate, among other uses. […] When a substrate peptide cleavage occurs, the energy balance is broken and all the donor fluorescence can be observed. The increase in fluorescence is linearly related to the rate of proteolysis (Gordon, G W et al., 1998). In this assay the reaction occurs between an enzyme, purified BACE-1, and a fluorogenic peptidic substrate who present the “Swedish mutation”. The peptide cleavage by BACE-1 produces fluorescence energy and enzymatic activity can be quantified.
The reagents which are used in this assay are the following:
rhBACE-1 β-Secretase recombinant human (R&D Systems. Ref. 931-AS).
Fluorogenic Peptide Substrate IV (R&D Systems. Ref. ES004).
Beta-SECRETASE INHIBITOR H-4848. (BACHEM. Ref. H-4848.0001).
The assay is carried out in a 96 wells microplate. The final concentration of substrate is 3.5 μM per well, and the enzyme concentration is 0.5 μg/ml. The final volume of the assay is 100 μl per well and all reagents are diluted in Reaction Buffer. The compounds are tested at a concentration of 10^−5 and 10^−6 M. The control in the assay is the commercial inhibitor R-Secretase inhibitor H-4848 from BACHEM, which is tested at 300 nM. All the samples and controls are studied by duplicate.
The plate is mixed gently and changes in the fluorescence are measured using a fluorimeter plate reader, with 320 nm excitation filter and 405 nm emission filter. The temperature should be preferably maintained between 25 and 30° C. Measurements are carried out every ten minutes during an hour. The first measure is subtracted from the last to calculate the fluorescence increase, evaluating the enzymatic activity. The 100% activity is calculated as the mean of the results of wells without sample or inhibitor.
In the cases where abnormal effects in fluorescence were detected, BACE inhibition activity was assayed using BACE-1 (beta-Secretase) FRET ASSAY KIT (Invitrogen, Ref. P2985). Fluorescence was measured with a fluorimeter plate reader, with 544 nm excitation filter and 580 nm emission filter.
as §1

Sequence of recombinant human glycogen synthase kinase 3 beta (P49841 whole entry): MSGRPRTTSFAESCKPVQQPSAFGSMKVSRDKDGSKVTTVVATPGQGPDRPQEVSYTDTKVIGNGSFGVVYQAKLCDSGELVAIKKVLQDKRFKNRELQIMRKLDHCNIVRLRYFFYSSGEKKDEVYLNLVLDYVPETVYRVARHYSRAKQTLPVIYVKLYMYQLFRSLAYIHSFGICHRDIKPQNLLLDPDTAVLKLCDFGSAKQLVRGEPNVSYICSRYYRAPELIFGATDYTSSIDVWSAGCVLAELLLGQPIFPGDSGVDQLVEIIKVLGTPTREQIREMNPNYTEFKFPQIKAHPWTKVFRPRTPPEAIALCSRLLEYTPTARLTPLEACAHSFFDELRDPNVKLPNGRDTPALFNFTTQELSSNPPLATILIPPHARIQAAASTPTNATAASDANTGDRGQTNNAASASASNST
T1 sequence (P56817 46-457 limits assumed): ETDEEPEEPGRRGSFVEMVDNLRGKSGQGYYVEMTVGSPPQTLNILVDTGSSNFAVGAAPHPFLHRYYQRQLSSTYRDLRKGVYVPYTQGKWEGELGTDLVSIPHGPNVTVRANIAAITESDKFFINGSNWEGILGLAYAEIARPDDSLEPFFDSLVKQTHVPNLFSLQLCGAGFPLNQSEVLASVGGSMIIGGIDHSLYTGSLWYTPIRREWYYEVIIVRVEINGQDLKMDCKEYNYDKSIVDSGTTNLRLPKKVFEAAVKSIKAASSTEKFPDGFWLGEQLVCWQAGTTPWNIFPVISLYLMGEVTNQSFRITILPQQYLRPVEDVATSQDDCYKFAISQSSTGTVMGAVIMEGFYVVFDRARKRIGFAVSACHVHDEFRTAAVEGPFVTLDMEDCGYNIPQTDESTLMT

SMILES | remaining activity at 50 µM [1] | % of BACE activity ([2]; 1 μM compound) | % of BACE activity ([2]; 10 μM compound) | remaining activity at 25 µM [1]
COC(=O)c1ccc(NC(C)=O)c(OC/C=C(\C)CCC=C(C)C)c1 [Compound 19, 4-Acetylamino-3-(3,7-dimethyl-octa-2,6-dienyloxy)-benzoic acid methyl ester] | 85.1% | 3.5 ± 5% | 0% | –
CC(C)=CCC/C(C)=C/COc1cccc(C(=O)O)c1 [Compound 6] | 80% | 87.5 ± 17% | 36.5 ± 38% | 70.3%
COC(=O)c1ccc(OC)c(OC/C=C(\C)CCC=C(C)C)c1 [Compound 2, 3-(3,7-Dimethyl-octa-2,6-dienyloxy)-4-methoxy-benzoic acid methyl ester] | 68% | 100% | 18.5 ± 12.1% | 88.1%
CC(C)=CCC/C(C)=C/COc1cc(C(=O)O)ccc1O [Compound 28] | 95.7% | 100% | 89 ± 6% | 90.8%
COC(=O)c1ccc(N)c(OC/C=C(\C)CCC=C(C)C)c1 [Compound 8, 4-Amino-3-(3,7-dimethyl-octa-2,6-dienyloxy)-benzoic acid methyl ester] | 71% | 100% | 81 ± 8% | 85.6%
COC(=O)c1cccc(OC/C=C(\C)CCC=C(C)C)c1 [Compound 5] | 80.7% | 13.3% | 0% | 94.4%
COCOC(=O)c1ccc(OC)c(OC/C=C(\C)CCC=C(C)C)c1 [Compound 23, 3-(3,7-Dimethyl-octa-2,6-dienyloxy)-4-methoxy-benzoic acid methoxymethyl ester] | 18.6% | 61 ± 133% | 0% | 53%
CCOC(=O)c1ccc(O)c(OC/C=C(\C)CCC=C(C)C)c1 [Compound 27] | 7.61% | 100% | 50 ± 16% | 48.3%

The next lines start with the values.

remaining activity at 50 µM [1] | % of BACE activity ([2]; 1 μM compound) | % of BACE activity ([2]; 10 μM compound) | remaining activity at 25 µM [1] | SMILES
27.9% | 99 ± 7% | 42 ± 18% | 47.5% | COc1ccc(C(=O)NC/C=C(\C)CCC=C(C)C)cc1OC/C=C(\C)CCC=C(C)C [Compound 12, N-(3,7-Dimethyl-octa-2,6-dienyl)-3-(3,7-dimethyl-octa-2,6-dienyloxy)-4-methoxy-benzamide]
58.2% | 48 ± 2% | 8 ± 3% | 84.8% | COc1ccc(C(=O)OC/C=C(\C)CCC=C(C)C)cc1OC/C=C(\C)CCC=C(C)C [Compound 11, 3-(3,7-Dimethyl-octa-2,6-dienyloxy)-4-methoxy-benzoic acid 3,7-dimethyl-octa-2,6-dienyl ester]
65.5% | 100% | 79 ± 13% | 90.4% | CC(C)=CCC/C(C)=C/CC/C(C)=C/COc1cc(C(=O)O)ccc1N [Compound 17, 4-Amino-3-(3,7,11-trimethyl-dodeca-2,6,10-trienyloxy)-benzoic acid]
57.5% | 68.5 ± 0.7% | 29 ± 10% | 90% | CC(=O)Nc1ccc(C(=O)O)cc1OC/C=C(\C)CC/C=C(\C)CCC=C(C)C [Compound 21, 4-Acetylamino-3-(3,7,11-trimethyl-dodeca-2,6,10-trienyloxy)-benzoic acid]
59.5% | 100% | 80 ± 13% | 91.7% | COC(=O)c1ccc(N)c(OC/C=C(\C)CC/C=C(\C)CCC=C(C)C)c1 [Compound 9, 4-Amino-3-(3,7,11-trimethyl-dodeca-2,6,10-trienyloxy)-benzoic acid methyl ester]
7.36% | 49 ± 5% | 0% | 54.6% | COc1ccc(C(=O)OCC=C(C)C)cc1OC/C=C(\C)CCC=C(C)C [Compound 13]
4.55% | 30 ± 7% | 26 ± 13% | 12.4% | CC(C)=CCC/C(C)=C/CC/C(C)=C/COc1ccc(C(=O)O)cc1OC/C=C(\C)CC/C=C(\C)CCC=C(C)C [Compound 24, 3,4-Bis-(3,7,11-trimethyl-dodeca-2,6,10-trienyloxy)-benzoic acid]
40% | 2 ± 4.5% | 0% | 74.4% | COC(=O)c1ccc(NC(C)=O)c(OC/C=C(\C)CC/C=C(\C)CCC=C(C)C)c1 [Compound 20]
19.5% | 86.5 ± 5% | 82 ± 10% | 56% | COC(=O)c1ccc(OC)c(OC/C=C(\C)CCC=C(C)C)c1C/C=C(\C)CCC=C(C)C [Compound 10]
